# Data published in patent US9963496B2, “Stable glucagon analogues and use for treatment of hypoglycaemia” (Novo Nordisk A/S, priority 2014, dated 2018).
# *1 amine or outer side, *2 acyl side, *3 side chain or, on linkers, in order; H or OH if unused. Where a SMILES comes first, the peptide text is derived from it. Side-chain parts run from the residue outwards. [ ]: non-standard residue; d: D form. The star is where a group is joined. γGlu = O=C(O)[C@H](CCC(=O)[*:2])N[*:1]; Desaminohistidyl = O=C(CCc1c[nH]cn1)*; Aib = CC(C)(N)C(=O)O
# Experiment: physchem
# Format: physicochemical
# Conditions: pH 7.5
# How it was run: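 Peptide at 250 μM in 10 mM HEPES pH 7.5 with 1 μM Thioflavin T, incubated at 37° C with 960 rpm orbital shaking. ThT fluorescence (ex 444/em 485 nm) read every 20 min; lag-time (t0−2τ) and kapp (1/τ) from curve fit. Recovery is post-assay supernatant peptide by RP-HPLC as % of initial.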
row,Structure (SMILES),recovery at 250 μM
1,"CC(=O)N[C@@H](CCC(=O)N[C@@H](CCC(=O)N[C@@H](CCC(=O)N[C@@H](CCC(=O)NCCCC[C@H](NC(=O)[C@H](CC(C)C)NC(=O)[C@H](CC(C)C)NC(=O)[C@H](Cc1c[nH]c2ccccc12)NC(=O)[C@H](C)NC(=O)[C@@H](NC(=O)[C@H](Cc1ccccc1)NC(=O)[C@H](CC(=O)O)NC(=O)[C@H](CCC(N)=O)NC(=O)[C@H](C)NC(=O)[C@H](CCCNC(=N)N)NC(=O)[C@H](CCCNC(=N)N)NC(=O)[C@H](CO)NC(=O)[C@H](CCC(=O)O)NC(=O)[C@H](CC(C)C)NC(=O)[C@H](Cc1ccc(O)cc1)NC(=O)[C@H](CCCCN)NC(=O)[C@H](CO)NC(=O)[C@H](Cc1ccc(O)cc1)NC(=O)[C@H](CC(=O)O)NC(=O)[C@H](CO)NC(=O)[C@@H](NC(=O)[C@H](Cc1ccccc1)NC(=O)[C@@H](NC(=O)CNC(=O)[C@H](Cc1c[nH]cn1)NC(=O)C(C)(C)NC(=O)CCc1c[nH]cn1)[C@@H](C)O)[C@@H](C)O)C(C)C)C(=O)N[C@H](C(=O)O)[C@@H](C)O)C(=O)O)C(=O)O)C(=O)O)C(=O)O [Example 4, N^ϵ28-[(4S)-4-[[(4S)-4-[[(4S)-4-[[(4S)-4-acetamido-4-carboxybutanoyl]amino]-4-carboxybutanoyl]amino]-4-carboxybutanoyl]amino]-4-carboxybutanoyl]-[Imp1, Aib2, His3, Glu15, Ala24, Leu27, Lys28]-Glucagon] (Desaminohistidyl-[Aib]HGTFTSDYSKYLESRRAQDFVAWLLK([γGlu-γGlu-γGlu-γGlu-Ac])T-OH)",100%
2,"CC(=O)N[C@@H](CCC(=O)N[C@@H](CCC(=O)N[C@@H](CCC(=O)N[C@@H](CCC(=O)NCCCC[C@H](NC(=O)[C@@H](NC(=O)[C@H](Cc1ccccc1)NC(=O)[C@H](CC(=O)O)NC(=O)[C@H](CCC(N)=O)NC(=O)[C@H](C)NC(=O)[C@H](CCCNC(=N)N)NC(=O)[C@H](CCCNC(=N)N)NC(=O)[C@H](CC(C)C)NC(=O)[C@H](CC(=O)O)NC(=O)[C@H](CC(C)C)NC(=O)[C@H](Cc1ccc(O)cc1)NC(=O)[C@H](CCCCN)NC(=O)[C@H](CO)NC(=O)[C@H](Cc1ccc(O)cc1)NC(=O)[C@H](CC(=O)O)NC(=O)[C@H](CO)NC(=O)[C@@H](NC(=O)[C@H](Cc1ccccc1)NC(=O)[C@@H](NC(=O)CNC(=O)[C@H](Cc1c[nH]cn1)NC(=O)C(C)(C)NC(=O)CCc1c[nH]cn1)[C@@H](C)O)[C@@H](C)O)C(C)C)C(=O)N[C@@H](Cc1c[nH]c2ccccc12)C(=O)N[C@@H](CC(C)C)C(=O)N[C@@H](CC(C)C)C(=O)N[C@@H](CO)C(=O)N[C@H](C(=O)O)[C@@H](C)O)C(=O)O)C(=O)O)C(=O)O)C(=O)O [Example 1, N^ϵ24-[(4S)-4-[[(4S)-4-[[(4S)-4-[[(4S)-4-acetamido-4-carboxybutanoyl]amino]-4-carboxybutanoyl]amino]-4-carboxybutanoyl]amino]-4-carboxybutanoyl]-[Imp1, Aib2, His3, Leu16, Lys24, Leu27, Ser28]-Glucagon] (Desaminohistidyl-[Aib]HGTFTSDYSKYLDLRRAQDFVK([γGlu-γGlu-γGlu-γGlu-Ac])WLLST-OH)",101%
3,"CC(=O)N[C@@H](CCC(=O)N[C@@H](CCC(=O)N[C@@H](CCC(=O)N[C@@H](CCC(=O)NCCCC[C@H](NC(=O)[C@@H](NC(=O)[C@H](Cc1ccccc1)NC(=O)[C@H](CCC(=O)O)NC(=O)[C@H](CCC(N)=O)NC(=O)[C@H](C)NC(=O)[C@H](CCCNC(=N)N)NC(=O)[C@H](CCCNC(=N)N)NC(=O)[C@H](CC(C)C)NC(=O)[C@H](CC(=O)O)NC(=O)[C@H](CC(C)C)NC(=O)[C@H](Cc1ccc(O)cc1)NC(=O)[C@H](CCCCN)NC(=O)[C@H](CO)NC(=O)[C@H](Cc1ccc(O)cc1)NC(=O)[C@H](CC(=O)O)NC(=O)[C@H](CO)NC(=O)[C@@H](NC(=O)[C@H](Cc1ccccc1)NC(=O)[C@@H](NC(=O)CNC(=O)[C@H](Cc1c[nH]cn1)NC(=O)[C@H](CO)NC(=O)CCc1c[nH]cn1)[C@@H](C)O)[C@@H](C)O)C(C)C)C(=O)N[C@@H](Cc1c[nH]c2ccccc12)C(=O)N[C@@H](CC(C)C)C(=O)N[C@@H](CC(C)C)C(=O)N[C@@H](CO)C(=O)N[C@H](C(=O)O)[C@@H](C)O)C(=O)O)C(=O)O)C(=O)O)C(=O)O [Example 8, N^ϵ24-[(4S)-4-[[(4S)-4-[[(4S)-4-[[(4S)-4-acetamido-4-carboxybutanoyl]amino]-4-carboxybutanoyl]amino]-4-carboxybutanoyl]amino]-4-carboxybutanoyl]-[Imp1, His3, Leu16, Glu21, Lys24, Leu27, Ser28]-Glucagon] (Desaminohistidyl-SHGTFTSDYSKYLDLRRAQEFVK([γGlu-γGlu-γGlu-γGlu-Ac])WLLST-OH)",103%
4,"CC(=O)N[C@@H](CCC(=O)N[C@@H](CCC(=O)N[C@@H](CCC(=O)N[C@@H](CCC(=O)NCCCC[C@H](NC(=O)[C@@H](NC(=O)[C@H](Cc1ccccc1)NC(=O)[C@H](CC(=O)O)NC(=O)[C@H](CCC(N)=O)NC(=O)[C@H](C)NC(=O)[C@H](CCCNC(=N)N)NC(=O)[C@H](CCCNC(=N)N)NC(=O)[C@@H](NC(=O)[C@H](CC(=O)O)NC(=O)[C@H](CC(C)C)NC(=O)[C@H](Cc1ccc(O)cc1)NC(=O)[C@H](CCCCN)NC(=O)[C@H](CO)NC(=O)[C@H](Cc1ccc(O)cc1)NC(=O)[C@H](CC(=O)O)NC(=O)[C@H](CO)NC(=O)[C@@H](NC(=O)[C@H](Cc1ccccc1)NC(=O)[C@@H](NC(=O)CNC(=O)[C@H](Cc1c[nH]cn1)NC(=O)C(C)(C)NC(=O)CCc1c[nH]cn1)[C@@H](C)O)[C@@H](C)O)C(C)C)C(C)C)C(=O)N[C@@H](Cc1c[nH]c2ccccc12)C(=O)N[C@@H](CC(C)C)C(=O)N[C@@H](CC(C)C)C(=O)N[C@@H](CO)C(=O)N[C@H](C(=O)O)[C@@H](C)O)C(=O)O)C(=O)O)C(=O)O)C(=O)O [Example 10, N^ϵ24-[(4S)-4-[[(4S)-4-[[(4S)-4-[[(4S)-4-acetamido-4-carboxybutanoyl]amino]-4-carboxybutanoyl]amino]-4-carboxybutanoyl]amino]-4-carboxybutanoyl]-[Imp1, Aib2, His3, Val16, Lys24, Leu27, Ser28]-Glucagon] (Desaminohistidyl-[Aib]HGTFTSDYSKYLDVRRAQDFVK([γGlu-γGlu-γGlu-γGlu-Ac])WLLST-OH)",100%
